Source: ChEMBL document CHEMBL1201862, “PubChem BioAssay data set” (2004)
Active and inactive are the calls of the source. Cut-off read from the data, not from the text of the source, for most assays here: actives have a measured EC50 and inactives only a lower limit.

Assays:
[1] = biological target: T1, Carboxy-terminal domain RNA polymerase II polypeptide A small phosphatase 1 (Homo sapiens, UniProt Q9GZU7); experiment: inhibitors of CTDSP1, concentration-response testing, biochemical assay, absorbance-based, actives from ultra-high-throughput screening (AID 540297); assay type: functional
T1 sequence (Q9GZU7 whole entry): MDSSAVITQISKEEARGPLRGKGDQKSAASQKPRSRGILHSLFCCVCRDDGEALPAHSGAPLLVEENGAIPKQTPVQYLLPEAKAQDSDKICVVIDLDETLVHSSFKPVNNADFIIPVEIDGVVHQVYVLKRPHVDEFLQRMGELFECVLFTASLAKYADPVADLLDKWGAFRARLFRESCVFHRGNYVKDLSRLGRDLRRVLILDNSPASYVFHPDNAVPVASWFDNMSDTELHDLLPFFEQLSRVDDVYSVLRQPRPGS

[2] = biological target: Glucose-6-phosphate 1-dehydrogenase (Homo sapiens, UniProt P11413); experiment: human G6PD enzyme inhibitors, dose response, selectivity assay for P. falciparum G6PD inhibitor project, biochemical, fluorescence (AID 504792); assay type: functional
Sequence of Glucose-6-phosphate 1-dehydrogenase (P11413 whole entry): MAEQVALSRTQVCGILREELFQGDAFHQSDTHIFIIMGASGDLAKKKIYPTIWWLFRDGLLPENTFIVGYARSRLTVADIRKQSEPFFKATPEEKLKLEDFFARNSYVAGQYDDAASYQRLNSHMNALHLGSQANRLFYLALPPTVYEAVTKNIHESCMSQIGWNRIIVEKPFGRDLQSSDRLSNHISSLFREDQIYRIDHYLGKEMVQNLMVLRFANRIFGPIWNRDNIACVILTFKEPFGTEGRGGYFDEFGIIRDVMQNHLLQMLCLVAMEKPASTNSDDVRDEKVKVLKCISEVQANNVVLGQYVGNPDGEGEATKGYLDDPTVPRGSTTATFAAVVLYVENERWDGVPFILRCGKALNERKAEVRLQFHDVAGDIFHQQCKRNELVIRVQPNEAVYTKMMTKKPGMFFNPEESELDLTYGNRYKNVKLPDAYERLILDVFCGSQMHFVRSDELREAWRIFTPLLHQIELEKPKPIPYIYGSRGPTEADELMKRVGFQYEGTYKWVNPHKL

[3] = biological target: T2, Calpain-2 catalytic subunit (Sus scrofa, UniProt P43367); experiment: pig calpain II inhibitor potency, dose response, biochemical, fluorogenic peptide substrate (AID 1420); assay type: functional
T2 sequence (P43367 whole entry): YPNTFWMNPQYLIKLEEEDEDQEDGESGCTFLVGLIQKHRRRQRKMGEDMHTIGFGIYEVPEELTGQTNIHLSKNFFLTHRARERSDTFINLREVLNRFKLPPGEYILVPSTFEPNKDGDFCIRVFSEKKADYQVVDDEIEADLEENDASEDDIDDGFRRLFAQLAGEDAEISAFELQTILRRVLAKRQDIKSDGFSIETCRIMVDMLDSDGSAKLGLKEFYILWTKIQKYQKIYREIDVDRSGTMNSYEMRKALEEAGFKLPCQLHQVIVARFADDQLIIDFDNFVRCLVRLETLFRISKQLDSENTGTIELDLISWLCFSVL

[4] = Luminescence Cell-Based Dose Response HTS to Identify Activators of Luciferase Translation or Activity in H4 […] Cells. [Related pubchem assays: 1829 (Project Summary), 1814 (Primary HTS)]; assay type: functional
[5] = Luminescence Cell-Based Dose Confirmation HTS to Identify Activators of 5'UTR Stem-Loop Driven Alpha-Synuclein mRNA Translation in H4 Neuroglioblastoma Cells. [Related pubchem assays: 1829 (Project Summary), 1814 (Primary HTS)]; assay type: functional
[6] = tested on: H4; experiment: Luminescence Cell-Based Dose Response HTS to Identify Activators of 5'UTR Stem-Loop Driven Prion Protein mRNA Translation in H4 Neuroglioblastoma Cells. [Related pubchem assays: 1829 (Project Summary), 1814 (Primary HTS)]; assay type: functional; settings: Homo sapiens
[7] = C. albicans growth with fluconazole, confirmation, fluorescence, retest (AID 2467); assay type: functional, cell-based
[8] = NIH-3T3 fibroblast cytotoxicity, dose response, cytotoxicity control, cell-based, fluorescence, Alamar Blue, secondary assay (AID 2327); assay type: functional;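 note: NIH-3T3 mouse fibroblasts cultured with fluconazole at 8 µg/mL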
[9] = biological target: FAD-linked sulfhydryl oxidase ALR (Homo sapiens, UniProt P55789); experiment: inhibitors of human ALR sulfhydryl oxidase, dose response, biochemical, H2O2 detection, luminescence, cherry-pick (AID 493248)
Sequence of FAD-linked sulfhydryl oxidase ALR (P55789 whole entry): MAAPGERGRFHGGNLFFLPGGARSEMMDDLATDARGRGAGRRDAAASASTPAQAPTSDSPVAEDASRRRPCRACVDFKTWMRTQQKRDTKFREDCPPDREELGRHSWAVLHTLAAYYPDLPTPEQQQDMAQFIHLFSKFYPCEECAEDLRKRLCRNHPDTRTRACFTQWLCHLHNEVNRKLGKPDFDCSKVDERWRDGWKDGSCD

[10] = cells; assay type: functional, cell-based
[11] = cells; assay type: functional, cell-based; remark: listed apart in the source
[12] = biological target: Cytochrome P450 2D6 (Homo sapiens, UniProt P10635);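 note: CYP2D6 member of a cytochrome P450 panel assay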
Sequence of Cytochrome P450 2D6 (P10635 whole entry): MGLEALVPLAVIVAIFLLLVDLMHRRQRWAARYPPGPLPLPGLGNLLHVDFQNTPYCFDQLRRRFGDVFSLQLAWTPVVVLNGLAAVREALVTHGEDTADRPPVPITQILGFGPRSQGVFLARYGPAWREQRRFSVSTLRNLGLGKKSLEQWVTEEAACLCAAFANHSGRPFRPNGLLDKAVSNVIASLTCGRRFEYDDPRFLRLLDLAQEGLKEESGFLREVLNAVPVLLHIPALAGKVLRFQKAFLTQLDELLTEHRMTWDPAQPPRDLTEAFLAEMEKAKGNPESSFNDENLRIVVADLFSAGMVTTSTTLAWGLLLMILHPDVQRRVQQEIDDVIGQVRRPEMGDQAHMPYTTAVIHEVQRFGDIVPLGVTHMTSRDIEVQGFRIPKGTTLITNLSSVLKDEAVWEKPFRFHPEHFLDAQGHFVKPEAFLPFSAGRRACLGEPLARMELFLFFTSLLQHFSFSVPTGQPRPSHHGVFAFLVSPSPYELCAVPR

[13] = HEp-2 cell cytotoxicity, dose response, cytotoxicity control for RSV inhibitor project, HTS (AID 2410); assay type: functional; settings: human respiratory syncytial virus
[14] = HepG2 cell cytotoxicity, dose response, cytotoxicity control for Shn3 inhibitor project, CellTiter-Glo, cherry-picked (AID 624134); assay type: functional, cell-based
[15] = tested on: Streptococcus; experiment: Group A Streptococcus viability loss, dose response, counter-screen for streptokinase expression inhibitor project, luminescence, BacTiterGlo (AID 1915); assay type: functional, organism-based;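 note: potency for reduction of bacterial viability or growth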
[16] = biological target: T3, Streptokinase A (Streptococcus pyogenes serotype M1, UniProt P10520); experiment: S. pyogenes streptokinase expression inhibitors, potency, dose response, plasminogen activation absorbance, OD405 (AID 1914); assay type: functional, Streptococcus pyogenes M1 GAS;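 note: secreted streptokinase activity via plasminogen activation per viability signal from cell pellet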
T3 sequence (P10520 whole entry): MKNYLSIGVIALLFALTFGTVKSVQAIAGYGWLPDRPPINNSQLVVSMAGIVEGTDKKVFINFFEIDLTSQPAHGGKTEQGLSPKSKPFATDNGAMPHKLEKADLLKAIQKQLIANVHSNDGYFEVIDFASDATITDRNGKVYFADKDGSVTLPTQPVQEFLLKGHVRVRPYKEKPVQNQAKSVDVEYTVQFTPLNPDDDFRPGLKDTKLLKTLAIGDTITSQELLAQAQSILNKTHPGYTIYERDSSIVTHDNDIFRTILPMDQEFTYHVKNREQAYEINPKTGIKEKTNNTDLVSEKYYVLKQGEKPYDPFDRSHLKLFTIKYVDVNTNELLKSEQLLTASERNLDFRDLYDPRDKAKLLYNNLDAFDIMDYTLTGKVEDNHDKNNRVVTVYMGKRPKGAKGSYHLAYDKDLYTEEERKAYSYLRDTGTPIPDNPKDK

[17] = tested on: Streptococcus sp. 'group A'; experiment: growth inhibition of control SK(-) GAS strain, dose response, counter-screen for streptokinase expression inhibitor project, luminescence, kanamycin, BacTiterGlo, confirmation (AID 1900); assay type: functional, organism-based
[18] = control 3'UTR Renilla luciferase suppression, dose response, counter-screen for Shn3 inhibitor project, cell-based, Clone20-Shn3RL, cherry-picked (AID 624133); assay type: functional
[19] = biological target: T4, Heat shock factor protein 1 (Mus musculus, UniProt P38532); experiment: inhibition of MG132-induced HSE-luciferase signal, confirmation, cell-based, NIH3T3, luminescence, dose retest (AID 2382); assay type: functional;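 note: NIH3T3 fibroblasts with HSF1-driven luciferase reporter stressed by proteasome inhibitor MG132; luminescence from HSF1-driven luciferase expression after 8 hours of MG132 stress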
T4 sequence (P38532 whole entry): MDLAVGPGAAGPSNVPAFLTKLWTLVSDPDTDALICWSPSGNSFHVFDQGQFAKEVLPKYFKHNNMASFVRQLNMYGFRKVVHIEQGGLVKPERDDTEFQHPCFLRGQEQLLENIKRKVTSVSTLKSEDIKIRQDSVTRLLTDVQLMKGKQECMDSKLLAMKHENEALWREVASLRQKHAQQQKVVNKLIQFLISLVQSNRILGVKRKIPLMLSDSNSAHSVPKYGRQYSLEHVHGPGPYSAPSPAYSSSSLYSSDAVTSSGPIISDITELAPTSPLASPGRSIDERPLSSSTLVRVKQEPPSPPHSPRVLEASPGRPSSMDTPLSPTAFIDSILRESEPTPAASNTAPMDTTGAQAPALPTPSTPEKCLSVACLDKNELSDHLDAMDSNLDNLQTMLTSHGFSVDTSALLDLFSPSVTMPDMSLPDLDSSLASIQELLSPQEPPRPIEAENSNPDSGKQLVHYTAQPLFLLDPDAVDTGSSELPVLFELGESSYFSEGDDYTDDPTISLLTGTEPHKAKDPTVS

[20] = inhibitors of intracellular T. cruzi replication, confirmation, NIH3T3 host cells, beta-gal luminescence (AID 2044); assay type: functional, cell-based;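 note: intracellular parasites grown in NIH/3T3 mouse fibroblasts as host cells; luminescent beta-galactosidase reporter signal from transgenic T. cruzi replicating inside host cells; inhibitors lower the luminescence signal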
[21] = biological target: Paired box protein Pax-8 (Homo sapiens, UniProt Q06710); experiment: inhibitors of PAX8-driven TPO luciferase reporter, dose response, RMG-I cells, cherry-pick (AID 687027); assay type: functional, cell-based;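 note: luciferase reporter driven by Pax8 target thyroperoxidase promoter measured by SteadyGlo luminescence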
Sequence of Paired box protein Pax-8 (Q06710 whole entry): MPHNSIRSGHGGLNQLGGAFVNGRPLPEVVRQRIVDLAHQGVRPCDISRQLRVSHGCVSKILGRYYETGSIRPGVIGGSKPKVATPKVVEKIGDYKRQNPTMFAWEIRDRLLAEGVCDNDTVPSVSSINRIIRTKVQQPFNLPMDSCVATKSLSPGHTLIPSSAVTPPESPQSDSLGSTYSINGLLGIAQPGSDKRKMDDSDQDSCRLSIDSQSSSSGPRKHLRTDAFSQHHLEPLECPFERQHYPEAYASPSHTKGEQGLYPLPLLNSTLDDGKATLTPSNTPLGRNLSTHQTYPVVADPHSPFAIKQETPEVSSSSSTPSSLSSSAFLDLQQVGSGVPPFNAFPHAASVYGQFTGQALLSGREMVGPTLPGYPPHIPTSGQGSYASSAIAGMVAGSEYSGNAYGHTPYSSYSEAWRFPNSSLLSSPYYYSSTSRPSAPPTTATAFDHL

[22] = cytotoxicity toward NIH3T3 fibroblasts, dose response, counter-screen, cell-based, ATP luminescence, mouse fibroblasts (AID 2010); assay type: functional;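 note: cells exposed to compound for about 90 hours before reading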
[23] = Shn3 3'UTR reporter inhibitors, dose response, cell-based, Clone20 osteoblasts, firefly luciferase, cherry-picked (AID 624132); assay type: functional;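 note: firefly luciferase luminescence from reporter carrying the Shn3 3'UTR in osteoblasts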

Compound: Cc1oc2c(C)c3oc(=O)c(CC(=O)N[C@@H](CCCNC(N)=O)C(=O)O)c(C)c3cc2c1C
- IC50 [1]: 9.59 µM (active)

Compound: CCn1c(N)c(C(=O)NC)sc1=S
- IC50 [2]: > 80 µM (inactive)

Compound: CCn1c(SCc2ccc(F)cc2)nnc1C1CCN(S(=O)(=O)c2ccc(OC)cc2)CC1
- IC50 [3]: 26.2 µM (not active)

Compound: COc1ccc(NC2CC(=O)N(C(C)C)C2=O)cc1 (stereo not given)
- EC50 [4]: 18.8 µM (active)
- EC50 [5]: 5.94 µM (active)
- EC50 [6]: > 120 µM (not active)

Compound: CCn1c(=O)c(C(=O)NCc2cccnc2)c(O)c2ccccc21
- EC50 [7]: > 38 µM (not active)
- EC50 [8]: > 150 µM (inactive)

Compound: COc1ccc(OC)c(NC(=O)c2ccc3c(=O)n(CCc4ccccc4)c(=S)[nH]c3c2)c1
- IC50 [3]: 13 µM (not active)

Compound: O=C(CNC(=O)c1ccccc1)NCC(=O)OCC(=O)c1ccc([N+](=O)[O-])cc1
- IC50 [2]: > 80 µM (inactive)

Compound: COc1ccc(NC(=O)NC(C)c2ccccc2)cc1 (stereo not given)
- EC50 [7]: > 38 µM (not active)
- EC50 [8]: 73.5 µM (active)

Compound: CCCc1cc(C(=O)Nc2sc3c(c2C#N)CCC3)no1
- EC50 [7]: 1.02 µM (active)
- EC50 [8]: > 150 µM (inactive)

Compound: COc1ccc(CNC(=O)c2ccc(C(C)C)cc2)cc1
- EC50 [4]: 0.16 µM (inconclusive)
- EC50 [5]: 53.5 µM (active)
- EC50 [6]: 80.9 µM (active)

Compound: COc1ccc2c(c1OC)C(=O)N1N=C(c3ccc(O)cc3)CC21 (stereo not given)
- AC50 [9]: 1.11 µM (active)
- EC50 [8]: > 150 µM (inactive)

Compound: C[N+]1(CC(=O)OCCCc2ccccc2)CCCC1
- IC50 [1]: 6.36 µM (active)

Compound: CCc1ccc(NC(=O)C[S+]([O-])CC(=O)Nc2ccc(F)cc2F)cc1 (stereo not given)
- IC50 [1]: 11.2 µM (active)

Compound: CCC(C)c1ccccc1OCCn1ccnc1 (stereo not given)
- IC50 [2]: > 80 µM (inactive)

Compound: Cc1cc(=O)oc2cc(OCC(=O)N3c4ccccc4NC(=O)C3(C)C)ccc12
- IC50 [1]: 8.21 µM (active)

Compound: Cc1cc(C(=O)O)oc(=O)c1
- EC50 [10]: > 350 µM (not active)
- EC50 [11]: 58.9 µM (active)

Compound: CCCCn1c(N)c(-c2nc3ccccc3o2)c2c([N+](=O)[O-])nn(C)c(=O)c21
- IC50 [1]: 4.75 µM (active)

Compound: Cc1ccc(CSc2ccc3nnc(-c4cccnc4)n3n2)cc1
- IC50 [3]: 5.64 µM (active)

Compound: COc1ccc(CNC(=O)C2CCN(S(=O)(=O)c3ccc(-c4nn[nH]n4)cc3)CC2)cc1
- IC50 [3]: 14.9 µM (not active)

Compound: O=C(Nc1ccccc1N1CCOCC1)c1cc(F)cc(F)c1
- EC50 [7]: 1.64 µM (active)
- EC50 [8]: > 160 µM (inactive)

Compound: COc1cccc(C(=O)Nc2nc(O)c3c(n2)CCCC3)c1
- EC50 [4]: > 120 µM (not active)
- EC50 [5]: 14.5 µM (active)
- EC50 [6]: > 120 µM (not active)

Compound: COc1cccc(C2=CC(c3ccccc3)n3nnnc3N2)c1 (stereo not given)
- IC50 [3]: 2.32 µM (not active)
- AC50 [12]: 31.6 µM (inconclusive)

Compound: COc1ccc2c(c1)-c1nc(NC(=O)c3ccco3)sc1CC2
- EC50 [10]: > 350 µM (not active)
- EC50 [11]: 23 µM (active)
- CC50 [13]: 18.4 µM (active)

Compound: Cc1ccc(C)c(N2CCN(C(=O)CCCCCn3c(=S)[nH]c4ccc(N5CCOCC5)cc4c3=O)CC2)c1
- AC50 [14]: 5.02 µM (active)
- EC50 [15]: 140 µM (active)
- EC50 [16]: > 150 µM (not active)
- EC50 [17]: 6.52 µM (active)
- AC50 [18]: 3.48 µM (active)
- EC50 [19]: 5.28 µM (active)
- EC50 [20]: 0.348 µM (active)
- AC50 [21]: 5.97 µM (active)
- EC50 [22]: 16.5 µM (active)
- AC50 [23]: 1.99 µM (active)

Compound: Cc1ccc(-n2ncc(Cl)c2C(=O)NCc2ccccc2)cc1
- EC50 [4]: 4.06 µM (active)
- EC50 [5]: 3.28 µM (active)
- EC50 [6]: 5.76 µM (active)

Compound: CC(=O)Nc1ccc(S(=O)(=O)[N-]C2=C([n+]3ccn(-c4ccccn4)c3)C(=O)c3ccccc3C2=O)cc1
- EC50 [10]: > 350 µM (not active)
- EC50 [11]: > 350 µM (not active)

Compound: CC(C)NC(=O)C1CCCN(S(C)(=O)=O)C1 (stereo not given)
- IC50 [3]: 7.4 µM (not active)

Compound: Cc1ccc(OCC(=O)NNC(=O)C(C)Sc2ncnc3sc(C)c(C)c23)cc1 (stereo not given)
- IC50 [3]: 2.51 µM (not active)

Compound: CC(C)C(NC(=O)c1ccc(Cl)cc1Cl)C(=O)N1CCN(S(=O)(=O)c2ccccc2)CC1 (stereo not given)
- AC50 [18]: 21 µM (active)
- AC50 [23]: 48.5 µM (active)

Compound: C=C(C)CNC(=S)N/N=C/c1c(F)cccc1F
- IC50 [3]: 20.3 µM (not active)

Compound: COc1cccc(-c2c(C(=O)N/N=C/c3ccc(C)o3)nnn2-c2nonc2N)c1
- IC50 [2]: > 80 µM (inactive)

Compound: Cc1oc(/N=C/c2ccc3c(c2)OCO3)c(C#N)c1C
- EC50 [4]: 38.1 µM (active)
- EC50 [5]: > 120 µM (not active)
- EC50 [6]: > 120 µM (not active)

Compound: Cc1nc2ccccc2c(=O)n1/N=C/c1cn(-c2ccccc2)nc1-c1cccs1
- EC50 [4]: 14.8 µM (active)
- EC50 [5]: 5.11 µM (active)
- EC50 [6]: 6.75 µM (active)
